From patent US7999099B2, “Modified 5′-phosphonate azidothymidine—potential anti-viral preparations” (priority 2004, dated 2011) come the findings set out here.

One data set has as its system GKV-4046 HIV-1. In words: Inhibition of HIV-1 replication in MT-4 cell culture (p24 accumulation, cell viability by MTT). It counts as cell-based, type 1 human immunodeficiency virus. Conditions: MT-4 cells. On the procedure:
Inhibition of HIV replication was studied by cultivating pre-infected lymphoid cells of MT-4 cell line in the presence of the investigational compounds in the concentration of 0.001-100 µg per 1 ml of culture medium during one passage, i.e. 4 days.
Inhibition of HIV replication in a sensitive cell culture is assessed by the reduction of p24 virus-specific protein accumulation (according to immunoenzyme assay) as well as by the increase of cell viability in the presence of the drug as compared to the control on the 4th day of cultivation using bromide 3-(4,5-dimethylthiasol-2-yl)-2,5-diphenuyltetrasolium (MTT).
The effect of the investigational compounds of HIV-1 replication in MT-4 cell culture was studied using a known method.
The therapeutic index, or the index of selectivity (IS), is calculated as the ratio of 50% toxic concentration of a compound to its 50% effective dose (the results are presented in table 1).

Data set [1] in a line: Pharmacokinetics of generated AZT in dog blood after oral administration. The data set is classed as in vivo. As for the experimental part: A dog weighing 12 kg was orally given 250 mg of the investigational compound (mixed with curd). Blood samples (1 ml) were taken at defined intervals from the femoral vein. The samples were centrifuged (10 minutes at 2000 rpm) and the supernatant was separated. Oxetan (internal standard, 0.25 […]g) and methanol (0.75 ml) were added to aliquots of the supernatant (0.25 ml). The resulting mixture was centrifuged for 3 minutes at 5000 rpm. The supernatant was separated and evaporated in air flow at 40° C., water (1 ml) was added to the residue. Aliqutes (20[…]1) were analyzed by HPLC in Gynkotec chromatograph (Germany) using Ultrasphere ODC Beckman analytical column (USA). Eluent: 6% acetonitrile in 0.1% H3PO4 (pH 2.1) in the presence of 0.15% triethylamine; detection at […]max 265 nm at 30° C.

Read-outs that look alike come from different tables or passages of the source.

For “5′-Aminocarbonylphosphonyl-3′-azido-3′-deoxythymidine [Ie]”, the “IS (index of selectivity, ratio of 50% toxic concentration to 50% effective dose)” value with GKV-4046 HIV-1 was above 3000.
The term AUC denotes the area under the concentration-time curve, a measure of exposure. The Cmax is the highest concentration seen after dosing. The term MRT denotes the average time that molecules of a dose stay in the body. One may read the Tmax as the time from dosing to the highest level. `Cc1cn([C@H]2C[C@H](N=[N+]=[N-])[C@@H](CO[PH](=O)O)O2)c(=O)[nH]c1=O` [Nikavir, 5′-hydrohenphosphonate of 3′-azido-2′,3′-dideoxythymidine]: the “IS (index of selectivity, ratio of 50% toxic concentration to 50% effective dose)” value in the data set with GKV-4046 HIV-1 came to 2015. Moreover, in data set [1] (in vivo, po, 250 mg), the AUC was 16600 ng·h/mL, the CL stood at 15.0 L/h, the Cmax was found to be 1890 ng/mL and the MRT amounted to 10.4 h. Moreover, in data set [1] (in vivo, po, 250 mg), the T1/2 came out at 7.2 h and the Tmax came to 4.0 h.
With “5′-Hydroxymethylphosphonyl-3′-azido-3′-deoxythymidine [Ic]”, the “IS (index of selectivity, ratio of 50% toxic concentration to 50% effective dose)” value with GKV-4046 HIV-1 was above 1600.
The same measure, in the same setting: the value for “5′-Iodomethylphosphonyl-3′-azido-3′-deoxythymidine [Ib]” was above 100.
On the same count and under the same terms, with “5′-Chloromethylphosphonyl-3′-azido-3′-deoxythymidine [Ia]” the figure was above 3000.
As a reminder, the half-life is the time in which the quantity being followed falls by half. Consider `Cc1cn([C@H]2C[C@H](N=[N+]=[N-])[C@@H](CO)O2)c(=O)[nH]c1=O` [AZT, 3′-azido-3′-deoxythymidine], for which, in data set [1] (in vivo, of azidothymidine, oral, amount equivalent to 250 mg of AZT), the half-life is 5.2 h. In data set [1] (in vivo, of azidothymidine, oral, amount equivalent to 250 mg of AZT, read-out: AUC), the AUC was 58800 ng·h/mL. In data set [1] (in vivo, of azidothymidine, oral, amount equivalent to 250 mg of AZT, read-out: Cmax), the Cmax stood at 9770 ng/mL. Also, in data set [1] (in vivo, of azidothymidine, oral, amount equivalent to 250 mg of AZT, read-out: MRT), the MRT turned out to be 7.5 h. For the same compound, the Tmax in data set [1] (in vivo, of azidothymidine, oral, amount equivalent to 250 mg of AZT, read-out: Tmax) turned out to be 2.5 h. In addition, the CL in data set [1] (of azidothymidine, oral, amount equivalent to 250 mg of AZT) was 4.2 L/h.
“5′-Methoxymethylphosphonyl-3′-azido-3′-deoxythymidine”: the “IS (index of selectivity, ratio of 50% toxic concentration to 50% effective dose)” value in the data set with GKV-4046 HIV-1 is reported as above 100.
